{"source": "patent US5087633A", "about": "(G. D. Searle & Co., priority 1989, dated 1992)", "origin": "cited, not measured here", "details": "in vivo; cited from earlier work", "data": [{"smiles": "CCCCCNCC(N)=O", "note": "[milacemide]", "values": [{"measurement": "Increase of whole brain content of glycine", "value": 30, "unit": "%"}]}]}
